Measurements taken from ChEMBL document CHEMBL1201862, “PubChem BioAssay data set” (2004).
Calls of active or inactive are those of the source.

Tests used:
[1] = biological target: DNA repair and recombination protein RAD54-like (Homo sapiens, UniProt Q92698); test: inhibitors of human RAD54 branch migration, confirmation, biochemical, fluorescence, cherry-picked samples, dose series (AID 651657); assay type: functional
[2] = biological target: Ras and Rab interactor 1/Tyrosine-protein kinase ABL1 (Homo sapiens, UniProt P00519+Q13671); assay type: functional;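 further: biochemical TR-FRET dose-response test measuring inhibition of binding between Rin1 and Abl proteins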
[3] = biological target: DNA (cytosine-5)-methyltransferase 1 (Homo sapiens, UniProt P26358); test: DNMT1 methyltransferase inhibitors, confirmation, biochemical, fluorescent molecular beacon (AID 602386); assay type: functional
[4] = biological target: T1, RNA-binding protein pos-1 (Caenorhabditis elegans, UniProt G5EF15); test: inhibitors of POS-1/mex-3 RNA binding, dose response, biochemical, fluorescence polarization (AID 1964);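 further: purified POS-1 fused to maltose binding protein made in E. coli; potency of compounds blocking POS-1 binding to fluorescent RNA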
T1 sequence (G5EF15 whole entry): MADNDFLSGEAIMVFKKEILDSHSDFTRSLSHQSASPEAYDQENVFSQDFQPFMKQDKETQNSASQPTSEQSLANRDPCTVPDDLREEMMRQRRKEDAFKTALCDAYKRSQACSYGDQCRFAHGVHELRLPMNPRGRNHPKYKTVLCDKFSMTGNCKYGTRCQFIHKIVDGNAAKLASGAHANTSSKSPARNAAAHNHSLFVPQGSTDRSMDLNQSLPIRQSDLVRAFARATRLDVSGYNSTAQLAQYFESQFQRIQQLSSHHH

Genome polyprotein = Genome polyprotein (dengue virus type 2, UniProt P29990); test: Dengue-2 NS5 methyltransferase inhibitors, primary screen, biochemical, confirmation dose response (AID 588689); assay type: functional
Chain of Genome polyprotein (P29990 2492-3391 limits assumed): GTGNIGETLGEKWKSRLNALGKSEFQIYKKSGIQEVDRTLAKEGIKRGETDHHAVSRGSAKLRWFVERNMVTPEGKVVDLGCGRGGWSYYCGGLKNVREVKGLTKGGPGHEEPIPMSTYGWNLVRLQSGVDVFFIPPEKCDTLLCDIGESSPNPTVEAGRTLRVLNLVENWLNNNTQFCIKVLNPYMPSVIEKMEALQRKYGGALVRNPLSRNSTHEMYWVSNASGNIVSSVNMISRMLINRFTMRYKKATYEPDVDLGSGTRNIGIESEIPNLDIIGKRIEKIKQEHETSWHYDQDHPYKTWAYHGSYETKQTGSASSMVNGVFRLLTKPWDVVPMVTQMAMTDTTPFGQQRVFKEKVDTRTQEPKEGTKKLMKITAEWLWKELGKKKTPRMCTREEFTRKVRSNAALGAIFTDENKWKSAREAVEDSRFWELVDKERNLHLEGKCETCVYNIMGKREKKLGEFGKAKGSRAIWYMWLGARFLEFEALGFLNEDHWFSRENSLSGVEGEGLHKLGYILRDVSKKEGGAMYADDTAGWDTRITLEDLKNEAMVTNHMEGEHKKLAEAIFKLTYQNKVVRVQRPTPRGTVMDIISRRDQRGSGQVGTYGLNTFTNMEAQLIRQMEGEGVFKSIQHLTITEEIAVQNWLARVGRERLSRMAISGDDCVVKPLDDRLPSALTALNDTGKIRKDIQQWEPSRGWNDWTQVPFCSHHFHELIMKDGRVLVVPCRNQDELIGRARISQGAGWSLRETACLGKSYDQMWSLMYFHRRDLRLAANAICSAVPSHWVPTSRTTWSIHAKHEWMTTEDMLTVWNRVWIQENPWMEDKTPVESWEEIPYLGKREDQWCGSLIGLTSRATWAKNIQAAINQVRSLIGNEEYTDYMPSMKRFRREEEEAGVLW

[5] = biological target: Histone-lysine N-methyltransferase NSD2 (Homo sapiens, UniProt O96028); assay type: biochemical
Chain of Histone-lysine N-methyltransferase NSD2 (O96028 whole entry): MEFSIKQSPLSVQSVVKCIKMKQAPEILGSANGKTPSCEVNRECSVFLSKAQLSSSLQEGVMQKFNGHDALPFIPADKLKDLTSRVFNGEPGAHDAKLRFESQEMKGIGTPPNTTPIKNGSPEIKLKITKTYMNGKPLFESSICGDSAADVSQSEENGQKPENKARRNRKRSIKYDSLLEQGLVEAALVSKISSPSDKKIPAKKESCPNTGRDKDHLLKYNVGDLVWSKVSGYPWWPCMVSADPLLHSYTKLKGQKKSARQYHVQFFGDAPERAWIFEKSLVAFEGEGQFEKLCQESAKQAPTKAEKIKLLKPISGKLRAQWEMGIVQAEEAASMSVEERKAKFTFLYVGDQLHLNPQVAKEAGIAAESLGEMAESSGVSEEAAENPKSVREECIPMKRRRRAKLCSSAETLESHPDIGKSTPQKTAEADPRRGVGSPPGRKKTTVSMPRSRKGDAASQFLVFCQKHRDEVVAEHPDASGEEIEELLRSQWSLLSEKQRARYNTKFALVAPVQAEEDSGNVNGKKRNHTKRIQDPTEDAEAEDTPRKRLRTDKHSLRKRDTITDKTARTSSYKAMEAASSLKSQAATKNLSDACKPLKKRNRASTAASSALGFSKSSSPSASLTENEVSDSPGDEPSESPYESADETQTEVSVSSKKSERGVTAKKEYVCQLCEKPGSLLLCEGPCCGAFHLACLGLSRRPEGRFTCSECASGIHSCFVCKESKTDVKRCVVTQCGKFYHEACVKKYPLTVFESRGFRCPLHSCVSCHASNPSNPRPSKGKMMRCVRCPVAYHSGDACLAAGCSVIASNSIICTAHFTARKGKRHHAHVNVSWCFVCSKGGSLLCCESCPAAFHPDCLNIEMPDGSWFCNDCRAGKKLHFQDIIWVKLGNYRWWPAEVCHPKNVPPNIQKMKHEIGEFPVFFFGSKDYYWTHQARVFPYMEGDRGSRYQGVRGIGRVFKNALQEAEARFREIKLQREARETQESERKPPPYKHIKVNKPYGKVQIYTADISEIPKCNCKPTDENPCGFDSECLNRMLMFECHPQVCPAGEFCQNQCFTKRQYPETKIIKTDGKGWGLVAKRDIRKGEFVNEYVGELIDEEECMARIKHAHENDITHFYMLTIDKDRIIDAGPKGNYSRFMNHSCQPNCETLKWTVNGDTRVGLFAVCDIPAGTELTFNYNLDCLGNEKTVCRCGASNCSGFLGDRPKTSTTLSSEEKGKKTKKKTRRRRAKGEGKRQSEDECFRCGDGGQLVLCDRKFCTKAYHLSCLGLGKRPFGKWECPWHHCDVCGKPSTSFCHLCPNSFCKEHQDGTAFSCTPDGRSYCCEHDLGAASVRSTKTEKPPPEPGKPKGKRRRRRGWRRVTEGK

[6] = biological target: T2, Zinc finger protein mex-5 (Caenorhabditis elegans, UniProt Q9XUB2); test: MEX-5/TCR-2 RNA interaction inhibitors, dose response, biochemical, C. elegans, fluorescence polarization (AID 1960)
T2 sequence (Q9XUB2 whole entry): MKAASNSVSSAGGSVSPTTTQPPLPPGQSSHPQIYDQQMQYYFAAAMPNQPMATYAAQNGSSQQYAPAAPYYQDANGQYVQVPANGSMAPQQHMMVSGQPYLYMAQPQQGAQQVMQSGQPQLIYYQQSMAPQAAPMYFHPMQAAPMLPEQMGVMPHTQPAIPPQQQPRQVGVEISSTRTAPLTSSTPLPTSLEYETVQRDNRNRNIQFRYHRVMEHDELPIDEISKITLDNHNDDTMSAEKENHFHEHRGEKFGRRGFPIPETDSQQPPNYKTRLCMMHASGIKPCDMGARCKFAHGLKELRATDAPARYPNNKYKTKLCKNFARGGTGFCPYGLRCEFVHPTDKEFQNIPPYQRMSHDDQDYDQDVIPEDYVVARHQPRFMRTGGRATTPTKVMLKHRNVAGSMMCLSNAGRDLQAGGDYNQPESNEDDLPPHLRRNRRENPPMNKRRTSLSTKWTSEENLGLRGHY

[7] = biological target: T3, Carboxy-terminal domain RNA polymerase II polypeptide A small phosphatase 1 (Homo sapiens, UniProt Q9GZU7); test: inhibitors of CTDSP1, concentration-response testing, biochemical assay, absorbance-based, actives from ultra-high-throughput screening (AID 540297); assay type: functional
T3 sequence (Q9GZU7 whole entry): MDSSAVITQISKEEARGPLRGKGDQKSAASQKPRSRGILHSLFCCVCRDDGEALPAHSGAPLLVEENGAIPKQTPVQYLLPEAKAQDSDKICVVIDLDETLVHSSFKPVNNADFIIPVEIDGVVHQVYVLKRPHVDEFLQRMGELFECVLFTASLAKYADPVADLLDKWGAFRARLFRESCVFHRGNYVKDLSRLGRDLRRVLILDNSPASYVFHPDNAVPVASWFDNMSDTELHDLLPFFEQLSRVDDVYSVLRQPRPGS

[8] = ARNT/TACC3 interaction disruptors, potency, confirmation, biochemical, AlphaScreen, cherry-picked samples (AID 651703); assay type: functional, Homo sapiens;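 further: His-tagged ARNT PAS-B domain paired with GST-TACC3 E629A dimer coactivator fragment; potency of inhibitors that break up the complex and lower AlphaScreen signal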
[9] = biological target: T4, Sentrin-specific protease 1 (Homo sapiens, UniProt Q9P0U3); test: potency of human SENP1 inhibitors, dose response, biochemical, kinetic FRET (AID 651697); assay type: functional; conditions: read-out: IC50_Mean
T4 sequence (Q9P0U3 whole entry): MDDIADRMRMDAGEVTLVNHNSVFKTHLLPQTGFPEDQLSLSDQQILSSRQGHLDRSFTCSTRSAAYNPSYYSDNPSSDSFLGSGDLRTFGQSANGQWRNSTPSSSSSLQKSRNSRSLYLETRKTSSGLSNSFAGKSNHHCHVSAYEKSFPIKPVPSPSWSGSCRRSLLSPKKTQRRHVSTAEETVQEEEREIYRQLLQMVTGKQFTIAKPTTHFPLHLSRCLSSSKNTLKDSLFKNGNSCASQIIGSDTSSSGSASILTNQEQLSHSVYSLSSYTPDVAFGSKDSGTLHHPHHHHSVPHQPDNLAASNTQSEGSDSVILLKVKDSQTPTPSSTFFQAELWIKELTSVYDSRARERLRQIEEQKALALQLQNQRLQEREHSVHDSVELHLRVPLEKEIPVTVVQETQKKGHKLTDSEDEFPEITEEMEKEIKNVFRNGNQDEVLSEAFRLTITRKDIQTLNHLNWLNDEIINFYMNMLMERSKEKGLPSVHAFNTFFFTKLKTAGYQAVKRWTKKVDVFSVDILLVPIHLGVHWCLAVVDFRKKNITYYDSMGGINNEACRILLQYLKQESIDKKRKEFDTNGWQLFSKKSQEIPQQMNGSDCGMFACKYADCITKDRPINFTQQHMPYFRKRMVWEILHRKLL

Melanocortin receptor 4 = Melanocortin receptor 4 (Homo sapiens, UniProt P32245); assay type: functional, cell-based;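 further: Cell-based assay with luminescence read-out, confirmatory dose-response testing for agonist activity of biased ligands at MC4R; human U2OS cells with tagged receptor and beta-arrestin; potency of agonists that increase receptor coupling to beta-arrestin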
Chain of Melanocortin receptor 4 (P32245 whole entry, the tested form may be a part): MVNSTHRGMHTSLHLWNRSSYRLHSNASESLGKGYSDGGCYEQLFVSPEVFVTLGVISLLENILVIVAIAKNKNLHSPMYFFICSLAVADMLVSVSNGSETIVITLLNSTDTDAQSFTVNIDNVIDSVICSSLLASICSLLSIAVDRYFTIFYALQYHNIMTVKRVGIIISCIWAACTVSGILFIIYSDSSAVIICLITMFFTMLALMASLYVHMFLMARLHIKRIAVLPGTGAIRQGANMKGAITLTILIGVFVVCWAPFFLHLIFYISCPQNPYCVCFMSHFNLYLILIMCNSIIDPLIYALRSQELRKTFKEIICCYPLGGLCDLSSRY

[10] = biological target: T4, Sentrin-specific protease 1; test: Dose response confirmation of small molecule inhibitors of the catalytic domain of the SUMO protease, SENP1 in a FRET assay.; assay type: functional; conditions: read-out: IC50_Mean
[11] = Vero cell cytotoxicity, cytotoxicity control for M. tuberculosis inhibitor project, purified and synthesized samples, set 3 (AID 504684); assay type: functional
H4 = test: Luminescence Cell-Based Dose Response HTS to Identify Activators of 5'UTR Stem-Loop Driven Prion Protein mRNA Translation in H4 Neuroglioblastoma Cells. [Related pubchem assays: 1829 (Project Summary), 1814 (Primary HTS)]; assay type: functional; conditions: Homo sapiens
[12] = Luminescence Cell-Based Dose Response HTS to Identify Activators of Luciferase Translation or Activity in H4 […] Cells. [Related pubchem assays: 1829 (Project Summary), 1814 (Primary HTS)]; assay type: functional
[13] = Luminescence Cell-Based Dose Confirmation HTS to Identify Activators of 5'UTR Stem-Loop Driven Alpha-Synuclein mRNA Translation in H4 Neuroglioblastoma Cells. [Related pubchem assays: 1829 (Project Summary), 1814 (Primary HTS)]; assay type: functional
[14] = control 3'UTR Renilla luciferase suppression, dose response, counter-screen for Shn3 inhibitor project, cell-based, Clone20-Shn3RL, cherry-picked (AID 624133); assay type: functional
[15] = HepG2 cell cytotoxicity, dose response, cytotoxicity control for Shn3 inhibitor project, CellTiter-Glo, cherry-picked (AID 624134); assay type: functional, cell-based
[16] = Shn3 3'UTR reporter inhibitors, dose response, cell-based, Clone20 osteoblasts, firefly luciferase, cherry-picked (AID 624132); assay type: functional;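 further: firefly luciferase luminescence from reporter carrying the Shn3 3'UTR in osteoblasts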
Protein Wnt-3a = Protein Wnt-3a (Mus musculus, UniProt P27467); test: Wnt3a-driven reporter signaling inhibition, dose response, selectivity assay for Gli-SUFU antagonist project, Wnt-LIGHT cells, luminescence (AID 651570); assay type: functional; conditions: read-out: IC50_Mean;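 further: Wnt-LIGHT reporter cells stimulated with conditioned medium from Wnt3a-producing cells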
Chain of Protein Wnt-3a (P27467 whole entry): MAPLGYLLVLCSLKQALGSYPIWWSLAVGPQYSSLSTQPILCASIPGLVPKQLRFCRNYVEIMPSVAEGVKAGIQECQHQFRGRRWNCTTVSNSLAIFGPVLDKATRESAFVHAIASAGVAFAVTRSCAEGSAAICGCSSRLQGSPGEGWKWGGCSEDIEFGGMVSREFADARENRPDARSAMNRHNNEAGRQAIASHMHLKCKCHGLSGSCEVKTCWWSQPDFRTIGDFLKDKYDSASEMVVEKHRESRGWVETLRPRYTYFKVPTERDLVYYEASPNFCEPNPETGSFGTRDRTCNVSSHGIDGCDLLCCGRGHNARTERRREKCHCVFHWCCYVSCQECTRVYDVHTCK

[17] = biological target: Potassium voltage-gated channel subfamily KQT member 2 (Rattus norvegicus, UniProt O88943); test: KCNQ2 potassium channel inhibitors, dose response, cell-based, automated electrophysiology, set II, rat KCNQ2 (AID 588637); assay type: functional
Chain of Potassium voltage-gated channel subfamily KQT member 2 (O88943 whole entry): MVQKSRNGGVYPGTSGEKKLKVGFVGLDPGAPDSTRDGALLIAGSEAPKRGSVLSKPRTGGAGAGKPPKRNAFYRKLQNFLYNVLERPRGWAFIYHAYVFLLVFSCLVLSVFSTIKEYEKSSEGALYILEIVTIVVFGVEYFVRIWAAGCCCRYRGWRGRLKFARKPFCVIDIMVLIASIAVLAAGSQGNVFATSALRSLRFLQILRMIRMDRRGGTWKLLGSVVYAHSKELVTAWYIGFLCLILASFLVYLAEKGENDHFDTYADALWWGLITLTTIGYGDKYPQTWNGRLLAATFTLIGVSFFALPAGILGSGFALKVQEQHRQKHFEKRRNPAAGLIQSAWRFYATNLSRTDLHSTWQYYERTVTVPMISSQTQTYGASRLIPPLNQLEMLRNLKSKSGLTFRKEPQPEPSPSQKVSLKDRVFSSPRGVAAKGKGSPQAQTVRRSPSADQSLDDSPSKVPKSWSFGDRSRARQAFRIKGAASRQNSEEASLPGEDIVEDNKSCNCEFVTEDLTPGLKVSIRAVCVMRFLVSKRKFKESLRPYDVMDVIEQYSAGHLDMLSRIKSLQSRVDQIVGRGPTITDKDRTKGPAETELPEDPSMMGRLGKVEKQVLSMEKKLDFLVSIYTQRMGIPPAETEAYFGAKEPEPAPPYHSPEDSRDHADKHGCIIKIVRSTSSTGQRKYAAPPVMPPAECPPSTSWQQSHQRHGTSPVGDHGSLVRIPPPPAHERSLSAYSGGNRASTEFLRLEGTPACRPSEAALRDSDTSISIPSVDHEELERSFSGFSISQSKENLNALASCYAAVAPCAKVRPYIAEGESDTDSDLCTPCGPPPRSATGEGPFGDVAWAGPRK

[18] = biological target: Melanin-concentrating hormone receptor 1 (Homo sapiens, UniProt Q99705); test: Late-stage fluorescence-based counterscreen for antagonists of the G-protein coupled receptor 7 (GPR7): cell-based dose response assay to identify antagonists of the melanin-concentrating hormone receptor 1 (MCHR1) Set 6.; assay type: functional
Chain of Melanin-concentrating hormone receptor 1 (Q99705 whole entry): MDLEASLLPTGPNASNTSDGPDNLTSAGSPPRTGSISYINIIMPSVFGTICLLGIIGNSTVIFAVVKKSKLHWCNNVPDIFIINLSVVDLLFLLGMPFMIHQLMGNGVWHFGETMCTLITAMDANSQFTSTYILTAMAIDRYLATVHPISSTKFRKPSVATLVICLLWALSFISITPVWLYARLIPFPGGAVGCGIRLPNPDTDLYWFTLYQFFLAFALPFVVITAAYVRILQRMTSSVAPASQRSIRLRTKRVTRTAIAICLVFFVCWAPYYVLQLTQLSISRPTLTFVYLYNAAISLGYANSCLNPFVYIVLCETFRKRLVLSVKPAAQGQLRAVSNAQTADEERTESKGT

[19] = biological target: T5, Neuropeptides B/W receptor type 1 (Homo sapiens, UniProt P48145); test: GPR7 antagonist potency, late-stage follow-up, cell-based, fluorescence, dose response, set 6 (AID 588583); assay type: functional
T5 sequence (P48145 whole entry): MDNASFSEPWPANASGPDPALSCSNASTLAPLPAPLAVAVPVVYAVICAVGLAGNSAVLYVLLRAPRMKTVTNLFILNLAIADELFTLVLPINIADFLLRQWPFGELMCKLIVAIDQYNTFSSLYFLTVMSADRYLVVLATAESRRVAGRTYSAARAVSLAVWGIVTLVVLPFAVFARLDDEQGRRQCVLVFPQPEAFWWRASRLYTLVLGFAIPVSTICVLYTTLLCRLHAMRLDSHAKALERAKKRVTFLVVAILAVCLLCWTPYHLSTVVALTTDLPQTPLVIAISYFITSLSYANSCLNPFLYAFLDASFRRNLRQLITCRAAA

Chain of DNA repair and recombination protein RAD54-like (Q92698 whole entry): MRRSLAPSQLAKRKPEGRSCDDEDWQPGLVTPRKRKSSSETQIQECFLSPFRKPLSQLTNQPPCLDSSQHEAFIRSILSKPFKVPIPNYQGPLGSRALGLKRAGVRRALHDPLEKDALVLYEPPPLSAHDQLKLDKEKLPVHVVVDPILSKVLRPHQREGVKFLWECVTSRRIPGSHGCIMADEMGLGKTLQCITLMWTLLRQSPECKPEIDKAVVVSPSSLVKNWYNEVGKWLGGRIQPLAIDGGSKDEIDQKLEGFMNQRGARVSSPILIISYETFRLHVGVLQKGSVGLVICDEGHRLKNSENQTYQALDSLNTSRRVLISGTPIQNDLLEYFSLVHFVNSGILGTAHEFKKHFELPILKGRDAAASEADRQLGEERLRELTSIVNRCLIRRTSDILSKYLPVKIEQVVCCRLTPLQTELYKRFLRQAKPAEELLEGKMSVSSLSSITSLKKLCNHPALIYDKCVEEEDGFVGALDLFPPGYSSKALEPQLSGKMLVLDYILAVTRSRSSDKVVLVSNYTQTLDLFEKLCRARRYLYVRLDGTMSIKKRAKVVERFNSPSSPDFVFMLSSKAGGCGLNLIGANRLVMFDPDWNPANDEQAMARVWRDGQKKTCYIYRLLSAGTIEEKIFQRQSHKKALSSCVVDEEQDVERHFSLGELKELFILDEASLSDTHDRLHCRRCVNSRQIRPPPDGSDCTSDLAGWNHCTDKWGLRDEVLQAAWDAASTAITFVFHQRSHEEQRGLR

With `Cn1c(C(=O)NCCN2CCCCCC2)cc2c(=O)n(C)c3ccccc3c21` the AC50 [1] was 25.3 µM (active).

In the case of `Oc1ncnc2c1C(c1ccccc1)c1c(O)ncnc1O2`, the IC50 [2] is reported as 32 µM (inactive).

In the case of `Cc1cc(/C=C2\C(=O)NC(=O)N(c3ccccc3F)C2=O)c(C)n1-c1cc(C(=O)O)cc(C(=O)O)c1`, the IC50 [3] is reported as 10.7 µM (active), the EC50 [4] is reported as > 300 µM (not active) and the IC50 (Genome polyprotein) is reported as 63.6 µM (active). The AC50 [5] was > 20 µM (inactive), the EC50 [6] was > 300 µM (not active) and the IC50 [7] was 1.55 µM (active).

For `N#C[C@@H]1[C@@H](c2ccc(-c3ccc(F)cc3)cc2)[C@H](CO)N1c1nc(-c2ccccc2)cs1`, the AC50 [8] was 84.2 µM (active).

With `CC(=O)c1cccc(-c2cnc3c(NC=O)cc(-c4ccc(N(C)C)cc4)cn23)c1` the IC50 [9] was 9.66 µM (active), the EC50 (Melanocortin receptor 4) was > 89.2 µM (inactive) and the IC50 [10] was 11.2 µM (active).

In the case of `CCc1ccc(/C=C2/C(=O)N(C)C(=S)N2CC(=O)OC)s1`, the CC50 [11] is reported as > 100 µM (active), the EC50 (H4) is reported as > 120 µM (not active) and the EC50 [12] is reported as > 120 µM (not active). The EC50 [13] was 16.6 µM (active).

In the case of `CCCCN(C(C)=O)c1ccc2c(c1)C1CC2CCN1C(=O)OCc1ccccc1` (stereo not drawn), the AC50 [14] is reported as 4.4 µM (active), the AC50 [15] is reported as 66.9 µM (active) and the AC50 [16] is reported as 1.37 µM (active). The IC50 (Protein Wnt-3a) was 3.72 µM (active).

With `COCCNC(C(=O)Nc1cc(Cl)cc(Cl)c1)c1ccccc1` (stereo not drawn) the IC50 [17] was 16.1 µM (active).

With `N#CC(c1ccc(F)c(F)c1)c1c(Cl)cnn(Cc2cccc3ccccc23)c1=O` (stereo not drawn) the IC50 [18] was 0.186 µM (active) and the IC50 [19] was 0.186 µM (active).
